Reference: patent US5981517A, “Androstene derivatives” (priority 1997, dated 1999)

Legend:
skin = assay: Skin weight test, 10 days of topical treatment in the rat; assay type: in vivo, Male Sprague-Dawley rats; conditions: for Wet skin weight, Treated, Decrease / Wet skin weight, Untreated, Decrease: percent decrease of the control; for Wet skin weight, Treated, Decrease: treated flank; for Wet skin weight, Untreated, Decrease: untreated flank; for Body wt. gain / Thymus wt. / Wet skin weight, Treated / Wet skin weight, Untreated: topical 0.1%, 10 days; for Body wt. gain / Thymus wt.: daily dose 30 μg; for Thymus wt. / Wet skin weight, Treated / Wet skin weight, Untreated: mean ± S.E.; for Wet skin weight, Treated: treated left flank; for Wet skin weight, Treated / Wet skin weight, Untreated: 30 μg daily; for Wet skin weight, Untreated: untreated right flank
Method: Male Sprague-Dawley rats, weighing about 210 g, were lightly anesthetized with ether, shaved and marked in three areas on each flank with intradermally injected blue ink. […] Treated control animals received daily topical administration of the vehicle (DMF) alone. Solvent and test compound solutions (10 μL) were applied once daily for 10 consecutive days, with […] necessary. On the eleventh day, the animals were sacrificed, their skins were removed and 16 mm diameter plugs were punched out from each area. The plugs were scraped carefully to remove subcutaneous fat and muscle, then they were blotted on filter paper and weighed. Skin atrophy is a known side effect associated with topically applied anti-inflammatory steroids.

granuloma / thymolysis = assay: Comparison of local effect and systemic side-effects (therapeutic index); assay type: in vivo, rat; conditions: granuloma relative potency / thymolysis relative potency
Method: The test compound was dissolved in acetone and aliquots of varying concentrations were injected into cotton pellets. The pellets were dried and then one pellet was implanted beneath the skin of each test rat. Six days later, the animals were sacrificed and the granulation tissue (granuloma) which formed in and around the implanted pellet was removed, dried and weighed. In addition, the thymi and adrenals were removed and weighed.
(§1) Several further studies were undertaken to determine the effects of a selected compound of the invention and prior art steroids on thymi weights in rats when the drugs were systemically administered. In each of these studies, male Sprague-Dawley rats were used. The test compounds were suspended in 0.5% CMC (carboxymethylcellulose) and injected subcutaneously once daily for three days. On the fifth day (48 hours following the last treatment), the animals were sacrificed and the thymi weights were recorded. Body weight gains were measured 24 hours after the last treatment.
The ED50 's calculated for the local cotton pellet granuloma assay and the TED40 's calculated on the basis of thymus inhibition testing as described above were used to arrive at relative potency and a therapeutic index for a representative species of the invention as compared to prior art steroids.

thymi = tested on: thymi; design: species or system male Sprague-Dawley rats; conditions: rat, in vivo, sc
Method: as §1, with “treatment. From the test results, the TED40 's (thymolytic effective doses, that is, doses required to achieve 40% inhibition of thymi weight) and relative potencies of a representative compound of the invention and reference steroids were calculated. […] It is evident that the higher the inhibition of thymus activity at a given dose, the more toxic the compound is.” for “treatment.”

in vitro = in vitro ADME; conditions: rat, lung cytosol
Method: To determine that the compounds of the invention can be stable during the incubation period, the test compounds A, B, C, and D were investigated for their stabilities at the incubation conditions, which are room temperature and 2 hours, for receptor binding studies. The frozen cytosol which was made for the receptor binding study was thawed in a water bath and diluted with 1 part of incubation buffer (10 mM Tris/HCl, 10 mM sodium molybdate, and 2 mM 1,4-dithiothreitol) containing a 15 mM concentration of enzyme inhibitor, diisopropyl fluorophosphate. Portions (560 μL) of the diluted cytosol were added to centrifuge tubes containing 80 μL portions of blank incubation buffer instead of volume of tracer ([^3 H]triamcinolone acetonide) which would be used in the receptor binding study (RBS), 80 μL of solution of a Δ^1 -cortienic acid (0.1 mM) in buffer (the final concentration of Δ^1 -cortienic acid in the incubation medium was […]), and 80 μL of 100,000 nM of concentrations of test compounds in ethanol to give a final concentration of 10,000 nM. This mixture was kept at room temperature for 2 hours. Samples of 0.1 mL were taken at appropriate time intervals (0, 0.5, 1, 1.5, 2 hours) and were mixed with 0.2 mL of acetonitrile containing 5% DMSO. Each mixture was centrifuged and the supernatant were injected in the HPLC.
Male Sprague-Dawley rats, each weighing 150 to 200 g, were used 6 days after adrenalectomy. Rats were sacrificed by decapitation. Immediately after resection of the lungs, the tissue was frozen in ice. The cytosol was prepared using a slight modification of a previously described method (Dahlberg, 1984); After addition of 6 volumes of ice-cold incubation buffer (10 mM Tris/HCl, 10 mM sodium molybdate, and 2 mM 1,4-dithiothreitol), the tissue was homogenized with the Virtis 45 homogenizer at full speed, for 4 periods of 10 seconds with a 10-second cooling period between each step. The homogenate was centrifuged at 35,000 g for 1 hour at 4° C. in a Beckman ultracentrifuge L8-70M equipped with a T170 rotor. Portions (5 ml) of the cytosol were frozen in liquid nitrogen and stored at -80° C.

[1] = biological target: T1, rat lung glucocorticoid receptor (Rattus norvegicus, UniProt P06536); assay: Receptor binding studies ([3H]triamcinolone acetonide displacement); conditions: further receptor binding studies (Table X); dexamethasone = 100; * mean ± SE of 3-5 results
T1 construct: Immediately after resection of the lungs, the tissue was frozen in ice; The cytosol was prepared; from tissue; host or cells: lung cytosol of adrenalectomized male Sprague-Dawley rats
T1 sequence (P06536 1-795): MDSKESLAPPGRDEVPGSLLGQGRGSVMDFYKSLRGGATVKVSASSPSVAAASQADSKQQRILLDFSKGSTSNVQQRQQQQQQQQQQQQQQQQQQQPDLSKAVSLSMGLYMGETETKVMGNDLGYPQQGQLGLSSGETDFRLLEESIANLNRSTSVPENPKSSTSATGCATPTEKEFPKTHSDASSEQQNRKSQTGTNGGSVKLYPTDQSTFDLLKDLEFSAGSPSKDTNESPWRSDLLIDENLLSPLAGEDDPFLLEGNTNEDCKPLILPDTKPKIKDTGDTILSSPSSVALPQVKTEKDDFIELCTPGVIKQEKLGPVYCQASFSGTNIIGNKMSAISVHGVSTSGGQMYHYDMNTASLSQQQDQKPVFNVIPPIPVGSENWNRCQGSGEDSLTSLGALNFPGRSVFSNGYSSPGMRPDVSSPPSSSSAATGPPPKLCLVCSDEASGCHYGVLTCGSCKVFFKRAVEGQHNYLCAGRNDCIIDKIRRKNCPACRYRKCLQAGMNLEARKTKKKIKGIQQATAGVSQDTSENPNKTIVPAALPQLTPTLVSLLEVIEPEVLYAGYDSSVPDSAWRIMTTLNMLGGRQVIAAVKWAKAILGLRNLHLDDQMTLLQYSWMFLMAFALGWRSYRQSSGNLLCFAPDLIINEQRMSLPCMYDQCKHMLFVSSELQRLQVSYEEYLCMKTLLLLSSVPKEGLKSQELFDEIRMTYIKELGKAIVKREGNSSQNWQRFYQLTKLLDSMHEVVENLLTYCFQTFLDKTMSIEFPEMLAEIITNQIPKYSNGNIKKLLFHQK
Method: Male Sprague-Dawley rats, each weighing 150 to 200 g, were used 6 days after adrenalectomy. Rats were sacrificed by decapitation. Immediately after resection of the lungs, the tissue was frozen in ice. […] Portions (5 ml) of the cytosol were frozen in liquid nitrogen and stored at -80° C.
The cytosol was thawed in a water bath and diluted with 1 part of incubation buffer containing a 15 mM concentration of diisopropyl fluorophosphate. […] After a 2 hour incubation period at room temperature (24° C.), the unbound steroid was removed by addition of a 2% suspension of activated charcoal in incubation buffer (400 μL). The mixture was incubated for 5 minutes at room temperature and then was centrifuged at about 10,000 g for 3 minutes in the microcentrifuge. The radioactivity (cpm) in the supernatant (400 μL) was determined by liquid scintillation counting.
The data is fitted to the following logistic function:
B=T-T * C^N /(C^N +IC50^N)+NS,
where B=CPM in the presence of competitor, T=CPM in the absence of competitor, C=competitor concentration, N=Hill slope factor, and NS=cpm under non-specific binding conditions.
For the representative compound of the invention B, receptor binding affinity was investigated with and without Δ^1 -cortienic acid in the incubation solution to study the effect of Δ^1 -cortienic acid on the receptor binding.
Further studies to evaluate the relative receptor binding affinities of compounds of the invention, other compounds of formula (VII) hereinabove and well-known anti-inflammatory steroids were undertaken, using the methods described in the RECEPTOR BINDING STUDIES set forth above. […] For comparison purposes, the following compounds having formula (VII) above were also tested: […]

[2] = tested on: forearms of a human volunteer; assay: Further human vasoconstriction testing, Method 1; assay type: in vivo
Method: The mixtures, in 50 μL amounts, were applied to circular patches (8 mm diameter). After evaporation of ethanol, the patches were applied to the forearms of a human volunteer, and covered with a water impervious film for 3 hr. The intensity of vasoconstriction (scale 0-4) was judged at various time intervals after removal of the patches. The grading scale was as follows: 0, normal skin; 1, slight pallor of indistinct outline; 2, pallor with at least two corners outlined; 3, even pallor with a clear outline of the application sites; 4, very intense pallor. The skin tests (2-4 tests on each compound) were performed on the same person.

[3] = 24 Hours, 1 hour re-occlusion at 20-21 hours, 0.01 mM
[4] = 24 Hours, 1 hour re-occlusion at 20-21 hours, 0.05 mM
[5] = 24 Hours, 1 hour re-occlusion at 20-21 hours, 0.1 mM
[6] = 24 Hours, 1 hour re-occlusion at 20-21 hours, 0.5 mM

For CCC(=O)O[C@]1(C(=O)CCl)[C@@H](C)C[C@H]2[C@@H]3CCC4=CC(=O)C=C[C@]4(C)[C@@]3(F)[C@@H](O)C[C@@]21C [Clobetasol 17-propionate], the “Wet skin weight, Treated, Decrease” value (skin) was 21.2%, the “Wet skin weight, Untreated, Decrease” value (skin) was 19.2% and the Body wt. gain (skin) was 24.2 ± 2.3 g. For the same compound, the Thymus wt. (skin) was 190 ± 14 mg, the “Wet skin weight, Treated” value (skin) was 78.2 mg and the “Wet skin weight, Untreated” value (skin) was 67.6 ± 6.2 mg. The “Therapeutic Index (a/b)” value (granuloma / thymolysis) was 1.54 and the “Thymolysis, Relative Potency at ED40 Level (b)” value (thymi) was 1927.

Work on CCOC(=O)[C@@]1(OC(=O)CCl)CC[C@H]2[C@@H]3CCC4=CC(=O)C=C[C@]4(C)[C@H]3[C@@H](O)C[C@@]21C [Compound R, ethyl 17α-chloroacetoxy-11β-hydroxyandrosta-1,4-dien-3-one-17β-carboxylate] yielded a remaining at 2 h (in vitro) of 30%, an RBA [1] of 22 and a Vasoconstriction activity ([2]; 3 Hours, 0.01 mM) of 0. It also gave a Vasoconstriction activity ([2]; 3 Hours, 0.05 mM) of 0, a Vasoconstriction activity ([2]; 3 Hours, 0.1 mM) of 0 and a Vasoconstriction activity ([2]; 3 Hours, 0.5 mM) of 1. The Vasoconstriction activity ([2]; 3 Hours, 1 mM) was 1, the Vasoconstriction activity ([2]; 3 Hours, 5 mM) was 1 and the Vasoconstriction activity ([2]; 20 Hours, 0.01 mM) was 0. It also gave a Vasoconstriction activity ([2]; 20 Hours, 0.05 mM) of 0, a Vasoconstriction activity ([2]; 20 Hours, 0.1 mM) of 0 and a Vasoconstriction activity ([2]; 20 Hours, 0.5 mM) of 0. For the same compound, the Vasoconstriction activity ([2]; 20 Hours, 1 mM) was 0, the Vasoconstriction activity ([2]; 20 Hours, 5 mM) was 0 and the Vasoconstriction activity [2, 3] was 0. It also gave a Vasoconstriction activity [2, 4] of 0, a Vasoconstriction activity [2, 5] of 0 and a Vasoconstriction activity [2, 6] of 0.

For CCOC(=O)[C@@]1(OC(=O)CC)CC[C@H]2[C@@H]3CCC4=CC(=O)C=C[C@]4(C)[C@H]3[C@@H](O)C[C@@]21C [Compound P, reference compound], the remaining at 2 h (in vitro) was > 90%, the RBA [1] was 38 and the Vasoconstriction activity ([2]; 3 Hours, 0.01 mM) was 0. The Vasoconstriction activity ([2]; 3 Hours, 0.05 mM) was 0, the Vasoconstriction activity ([2]; 3 Hours, 0.1 mM) was 0 and the Vasoconstriction activity ([2]; 3 Hours, 0.5 mM) was 1. For the same compound, the Vasoconstriction activity ([2]; 3 Hours, 1 mM) was 2, the Vasoconstriction activity ([2]; 3 Hours, 5 mM) was 3 and the Vasoconstriction activity ([2]; 20 Hours, 0.01 mM) was 0. It also gave a Vasoconstriction activity ([2]; 20 Hours, 0.05 mM) of 0, a Vasoconstriction activity ([2]; 20 Hours, 0.1 mM) of 0 and a Vasoconstriction activity ([2]; 20 Hours, 0.5 mM) of 0. It also gave a Vasoconstriction activity ([2]; 20 Hours, 1 mM) of 1, a Vasoconstriction activity ([2]; 20 Hours, 5 mM) of 1 and a Vasoconstriction activity [2, 3] of 0. For the same compound, the Vasoconstriction activity [2, 4] was 0, the Vasoconstriction activity [2, 5] was 1 and the Vasoconstriction activity [2, 6] was 2.

For CCCC(=O)O[C@]1(C(=O)CO)CC[C@H]2[C@@H]3CCC4=CC(=O)CC[C@]4(C)[C@H]3[C@@H](O)C[C@@]21C [Hydrocortisone 17-butyrate], the “Wet skin weight, Treated, Decrease” value (skin) was 13.1%, the “Wet skin weight, Untreated, Decrease” value (skin) was 14.0% and the Body wt. gain (skin) was 45.7 ± 10.6 g. The Thymus wt. (skin) was 540 ± 61 mg, the “Wet skin weight, Treated” value (skin) was 86.3 ± 1.5 mg and the “Wet skin weight, Untreated” value (skin) was 72.0 ± 4.7 mg. The “Therapeutic Index (a/b)” value (granuloma / thymolysis) was 1.23 and the “Thymolysis, Relative Potency at ED40 Level (b)” value (thymi) was 57.

With CCOC(=O)[C@@]1(OC(=O)C(C)Cl)CC[C@H]2[C@@H]3CCC4=CC(=O)C=C[C@]4(C)[C@H]3[C@@H](O)C[C@@]21C (stereo partly drawn) [Q, ethyl 17α-(α-chloro)propionyloxy-11β-hydroxyandrosta-1,4-dien-3-one-17β-carboxylate] the remaining at 2 h (in vitro) was > 90%, the RBA [1] was 88 and the Vasoconstriction activity ([2]; 3 Hours, 0.01 mM) was 0. For the same compound, the Vasoconstriction activity ([2]; 3 Hours, 0.05 mM) was 0, the Vasoconstriction activity ([2]; 3 Hours, 0.1 mM) was 0 and the Vasoconstriction activity ([2]; 3 Hours, 0.5 mM) was 1. It also gave a Vasoconstriction activity ([2]; 3 Hours, 1 mM) of 1, a Vasoconstriction activity ([2]; 3 Hours, 5 mM) of 3 and a Vasoconstriction activity ([2]; 20 Hours, 0.01 mM) of 0. For the same compound, the Vasoconstriction activity ([2]; 20 Hours, 0.05 mM) was 0, the Vasoconstriction activity ([2]; 20 Hours, 0.1 mM) was 0 and the Vasoconstriction activity ([2]; 20 Hours, 0.5 mM) was 1. It also gave a Vasoconstriction activity ([2]; 20 Hours, 1 mM) of 1, a Vasoconstriction activity ([2]; 20 Hours, 5 mM) of 1 and a Vasoconstriction activity [2, 3] of 0. For the same compound, the Vasoconstriction activity [2, 4] was 0, the Vasoconstriction activity [2, 5] was 1 and the Vasoconstriction activity [2, 6] was 2.
